Assay results from ChEMBL document CHEMBL4507286 (2021).

How the values were obtained:
[1] = biological target: RAC-gamma serine/threonine-protein kinase (Homo sapiens) (UniProt Q9Y243)
[2] = biological target: Mitotic checkpoint serine/threonine-protein kinase BUB1 (Homo sapiens) (UniProt O43683)
[3] = biological target: Calcium/calmodulin-dependent protein kinase type II subunit alpha (Homo sapiens) (UniProt Q9UQM7)
[4] = biological target: Cyclin-dependent kinase 5 (Homo sapiens, UniProt Q00535)
[5] = biological target: Macrophage colony-stimulating factor 1 receptor (Homo sapiens) (UniProt P07333)
[6] = biological target: Casein kinase I isoform alpha (Homo sapiens) (UniProt P48729)
[7] = biological target: Death-associated protein kinase 3 (Homo sapiens) (UniProt O43293)
[8] = biological target: Serine/threonine-protein kinase 17A (Homo sapiens) (UniProt Q9UEE5)
[9] = tested on: Epidermal growth factor receptor (Homo sapiens), P00533 [G719S]
[10] = biological target: Ephrin type-A receptor 8 (Homo sapiens) (UniProt P29322)
[11] = biological target: Tyrosine-protein kinase HCK (Homo sapiens) (UniProt P08631)
[12] = biological target: Insulin receptor-related protein (Homo sapiens) (UniProt P14616)
[13] = biological target: Tyrosine-protein kinase JAK1 (Homo sapiens) (UniProt P23458)
[14] = biological target: Mast/stem cell growth factor receptor Kit (Homo sapiens) (UniProt P10721)
[15] = biological target: Serine/threonine-protein kinase LATS2 (Homo sapiens) (UniProt Q9NRM7)
[16] = biological target: Mitogen-activated protein kinase kinase kinase 1 (Homo sapiens) (UniProt Q13233)
[17] = biological target: Mitogen-activated protein kinase kinase kinase 15 (Homo sapiens) (UniProt Q6ZN16)
[18] = biological target: Mitogen-activated protein kinase kinase kinase 4 (Homo sapiens) (UniProt Q9Y6R4)
[19] = tested on: Hepatocyte growth factor receptor (Homo sapiens), P08581 [M1250T]
[20] = biological target: Serine/threonine-protein kinase Nek5 (Homo sapiens) (UniProt Q6P3R8)
[21] = biological target: Serine/threonine-protein kinase Nek9 (Homo sapiens) (UniProt Q8TD19)
[22] = biological target: Serine/threonine-protein kinase PAK 3 (Homo sapiens) (UniProt O75914)
[23] = biological target: Platelet-derived growth factor receptor alpha (Homo sapiens) (UniProt P16234)
[24] = biological target: Cyclin-dependent kinase 15 (Homo sapiens) (UniProt Q96Q40)
[25] = biological target: Phosphorylase b kinase gamma catalytic chain, skeletal muscle/heart isoform (Homo sapiens) (UniProt Q16816)
[26] = tested on: Phosphatidylinositol 4,5-bisphosphate 3-kinase catalytic subunit alpha isoform (Homo sapiens), P42336 [E542K]
[27] = tested on: Phosphatidylinositol 4,5-bisphosphate 3-kinase catalytic subunit alpha isoform (Homo sapiens), P42336 [M1043I]
[28] = biological target: Serine/threonine-protein kinase pim-2 (Homo sapiens) (UniProt Q9P1W9)
[29] = biological target: Serine/threonine-protein kinase pim-3 (Homo sapiens) (UniProt Q86V86)
[30] = biological target: Phosphatidylinositol 5-phosphate 4-kinase type-2 beta (Homo sapiens) (UniProt P78356)
[31] = biological target: Serine/threonine-protein kinase PknB (Mycobacterium tuberculosis) (UniProt P9WI81)
[32] = biological target: Serine/threonine-protein kinase PRP4 homolog (Homo sapiens) (UniProt Q13523)
[33] = biological target: Protein-tyrosine kinase 2-beta (Homo sapiens) (UniProt Q14289)
[34] = biological target: Serine/threonine-protein kinase SIK3 (Homo sapiens) (UniProt Q9Y2K2)
[35] = biological target: Ribosomal protein S6 kinase alpha-5 (Homo sapiens) (UniProt O75582)
[36] = biological target: STE20-like serine/threonine-protein kinase (Homo sapiens) (UniProt Q9H2G2)
[37] = biological target: SRSF protein kinase 3 (Homo sapiens) (UniProt Q9UPE1)
[38] = biological target: Dual specificity testis-specific protein kinase 1 (Homo sapiens) (UniProt Q15569)
[39] = biological target: Serine/threonine-protein kinase tousled-like 1 (Homo sapiens) (UniProt Q9UKI8)
[40] = biological target: Activated CDC42 kinase 1 (Homo sapiens) (UniProt Q07912)
[41] = biological target: NT-3 growth factor receptor (Homo sapiens) (UniProt Q16288)
[42] = biological target: Non-receptor tyrosine-protein kinase TYK2 (Homo sapiens) (UniProt P29597)
[43] = biological target: Serine/threonine-protein kinase 25 (Homo sapiens) (UniProt O00506)
[44] = biological target: Alpha-1B adrenergic receptor (Homo sapiens) (UniProt P35368); conditions: Compound concentration 10.0 uM
[45] = biological target: Beta-1 adrenergic receptor (Homo sapiens) (UniProt P08588); conditions: Compound concentration 10.0 uM
[46] = Compound concentration 1000.0 nM
[47] = Compound concentration 100.0 nM

Cyclin-dependent kinase 15 (Homo sapiens), sequence (Q96Q40 whole entry, canonical isoform): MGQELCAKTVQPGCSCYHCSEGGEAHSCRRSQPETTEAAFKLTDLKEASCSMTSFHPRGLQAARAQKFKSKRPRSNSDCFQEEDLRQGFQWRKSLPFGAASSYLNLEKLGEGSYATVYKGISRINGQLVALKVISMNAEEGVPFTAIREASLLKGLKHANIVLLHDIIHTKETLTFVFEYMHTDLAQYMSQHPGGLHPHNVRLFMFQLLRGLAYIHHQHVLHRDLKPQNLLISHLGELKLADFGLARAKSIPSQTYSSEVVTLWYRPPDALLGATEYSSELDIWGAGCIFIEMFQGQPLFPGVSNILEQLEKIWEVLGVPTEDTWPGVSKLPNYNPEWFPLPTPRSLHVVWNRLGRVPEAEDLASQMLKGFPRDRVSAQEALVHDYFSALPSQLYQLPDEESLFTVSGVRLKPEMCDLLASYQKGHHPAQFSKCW
Protein-tyrosine kinase 2-beta (Homo sapiens), sequence (Q14289 whole entry, looked up): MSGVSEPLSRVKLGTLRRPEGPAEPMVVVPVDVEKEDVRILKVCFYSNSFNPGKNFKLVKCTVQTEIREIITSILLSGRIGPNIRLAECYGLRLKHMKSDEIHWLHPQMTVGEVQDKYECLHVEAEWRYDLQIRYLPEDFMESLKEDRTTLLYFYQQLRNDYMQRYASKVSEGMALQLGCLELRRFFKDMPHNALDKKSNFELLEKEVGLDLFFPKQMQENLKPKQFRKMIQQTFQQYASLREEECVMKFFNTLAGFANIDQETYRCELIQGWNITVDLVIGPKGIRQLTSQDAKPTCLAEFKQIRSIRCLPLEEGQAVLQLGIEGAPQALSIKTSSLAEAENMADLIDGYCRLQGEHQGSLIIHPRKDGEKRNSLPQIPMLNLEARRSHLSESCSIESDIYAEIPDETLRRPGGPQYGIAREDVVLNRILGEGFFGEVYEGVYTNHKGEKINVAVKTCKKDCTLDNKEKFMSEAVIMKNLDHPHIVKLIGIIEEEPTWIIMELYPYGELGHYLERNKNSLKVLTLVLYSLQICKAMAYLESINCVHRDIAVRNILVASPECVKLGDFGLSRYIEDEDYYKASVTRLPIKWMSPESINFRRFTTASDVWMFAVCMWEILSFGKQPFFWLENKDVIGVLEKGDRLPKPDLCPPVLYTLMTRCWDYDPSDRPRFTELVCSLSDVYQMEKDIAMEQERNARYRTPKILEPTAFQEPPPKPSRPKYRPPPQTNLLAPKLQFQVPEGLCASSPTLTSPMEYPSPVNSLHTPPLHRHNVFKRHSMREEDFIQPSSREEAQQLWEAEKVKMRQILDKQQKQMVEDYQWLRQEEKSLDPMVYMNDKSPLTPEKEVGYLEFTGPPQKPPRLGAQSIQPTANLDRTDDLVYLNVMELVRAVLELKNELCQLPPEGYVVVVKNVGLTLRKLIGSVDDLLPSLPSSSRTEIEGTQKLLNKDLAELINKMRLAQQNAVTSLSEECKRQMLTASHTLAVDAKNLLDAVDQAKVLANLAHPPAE
RAC-gamma serine/threonine-protein kinase (Homo sapiens), sequence (Q9Y243 whole entry): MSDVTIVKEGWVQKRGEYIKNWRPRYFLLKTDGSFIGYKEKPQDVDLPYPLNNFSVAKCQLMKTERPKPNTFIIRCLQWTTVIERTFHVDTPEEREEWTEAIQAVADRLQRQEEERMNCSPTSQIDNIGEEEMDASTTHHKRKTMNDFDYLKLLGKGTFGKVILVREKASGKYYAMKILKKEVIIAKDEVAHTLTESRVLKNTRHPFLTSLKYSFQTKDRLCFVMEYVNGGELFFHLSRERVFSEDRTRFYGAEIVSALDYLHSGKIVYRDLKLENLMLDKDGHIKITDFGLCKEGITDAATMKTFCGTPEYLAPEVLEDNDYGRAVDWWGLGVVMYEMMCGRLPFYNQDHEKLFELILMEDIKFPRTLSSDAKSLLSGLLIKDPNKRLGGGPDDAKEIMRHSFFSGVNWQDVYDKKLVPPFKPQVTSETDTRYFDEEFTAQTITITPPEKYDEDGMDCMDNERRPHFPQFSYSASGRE
Serine/threonine-protein kinase PAK 3 (Homo sapiens), sequence (O75914 whole entry, looked up): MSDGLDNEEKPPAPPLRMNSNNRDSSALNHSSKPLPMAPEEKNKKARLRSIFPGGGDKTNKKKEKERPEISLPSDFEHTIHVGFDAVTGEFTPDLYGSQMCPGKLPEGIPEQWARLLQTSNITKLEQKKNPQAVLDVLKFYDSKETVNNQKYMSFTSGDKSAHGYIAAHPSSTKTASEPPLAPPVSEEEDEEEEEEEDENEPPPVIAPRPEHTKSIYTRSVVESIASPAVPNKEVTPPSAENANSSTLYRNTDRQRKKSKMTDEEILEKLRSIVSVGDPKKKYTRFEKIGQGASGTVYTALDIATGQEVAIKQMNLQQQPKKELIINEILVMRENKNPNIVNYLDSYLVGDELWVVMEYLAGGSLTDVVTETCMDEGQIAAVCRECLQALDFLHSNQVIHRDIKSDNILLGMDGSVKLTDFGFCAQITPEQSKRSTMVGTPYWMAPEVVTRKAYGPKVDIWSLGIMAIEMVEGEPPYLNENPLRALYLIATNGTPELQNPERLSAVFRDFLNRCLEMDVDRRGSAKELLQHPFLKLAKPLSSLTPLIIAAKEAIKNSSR
Casein kinase I isoform alpha (Homo sapiens), sequence (P48729 2-337 limits assumed): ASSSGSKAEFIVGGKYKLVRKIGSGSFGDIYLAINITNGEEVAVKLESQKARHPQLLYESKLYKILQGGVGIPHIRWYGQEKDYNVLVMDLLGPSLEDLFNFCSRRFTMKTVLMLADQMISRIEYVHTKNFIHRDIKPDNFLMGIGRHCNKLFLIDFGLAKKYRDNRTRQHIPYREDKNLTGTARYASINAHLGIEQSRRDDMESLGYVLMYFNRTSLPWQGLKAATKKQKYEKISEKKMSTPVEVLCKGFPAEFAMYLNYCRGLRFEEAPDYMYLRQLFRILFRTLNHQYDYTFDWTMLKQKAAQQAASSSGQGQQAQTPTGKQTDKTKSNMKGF
Death-associated protein kinase 3 (Homo sapiens), sequence (O43293 whole entry, looked up): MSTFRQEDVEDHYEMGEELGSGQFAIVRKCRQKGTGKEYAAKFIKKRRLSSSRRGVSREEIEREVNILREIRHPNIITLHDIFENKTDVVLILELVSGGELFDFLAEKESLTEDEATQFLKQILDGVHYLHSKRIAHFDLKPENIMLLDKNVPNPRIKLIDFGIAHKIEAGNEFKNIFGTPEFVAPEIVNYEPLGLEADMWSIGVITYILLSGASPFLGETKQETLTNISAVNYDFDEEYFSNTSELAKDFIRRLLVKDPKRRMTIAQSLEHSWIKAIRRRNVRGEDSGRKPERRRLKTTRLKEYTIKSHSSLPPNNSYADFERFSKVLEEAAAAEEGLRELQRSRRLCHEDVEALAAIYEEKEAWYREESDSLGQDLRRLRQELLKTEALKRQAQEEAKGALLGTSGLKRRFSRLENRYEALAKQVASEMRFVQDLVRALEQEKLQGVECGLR
Activated CDC42 kinase 1 (Homo sapiens), sequence (Q07912 whole entry, looked up): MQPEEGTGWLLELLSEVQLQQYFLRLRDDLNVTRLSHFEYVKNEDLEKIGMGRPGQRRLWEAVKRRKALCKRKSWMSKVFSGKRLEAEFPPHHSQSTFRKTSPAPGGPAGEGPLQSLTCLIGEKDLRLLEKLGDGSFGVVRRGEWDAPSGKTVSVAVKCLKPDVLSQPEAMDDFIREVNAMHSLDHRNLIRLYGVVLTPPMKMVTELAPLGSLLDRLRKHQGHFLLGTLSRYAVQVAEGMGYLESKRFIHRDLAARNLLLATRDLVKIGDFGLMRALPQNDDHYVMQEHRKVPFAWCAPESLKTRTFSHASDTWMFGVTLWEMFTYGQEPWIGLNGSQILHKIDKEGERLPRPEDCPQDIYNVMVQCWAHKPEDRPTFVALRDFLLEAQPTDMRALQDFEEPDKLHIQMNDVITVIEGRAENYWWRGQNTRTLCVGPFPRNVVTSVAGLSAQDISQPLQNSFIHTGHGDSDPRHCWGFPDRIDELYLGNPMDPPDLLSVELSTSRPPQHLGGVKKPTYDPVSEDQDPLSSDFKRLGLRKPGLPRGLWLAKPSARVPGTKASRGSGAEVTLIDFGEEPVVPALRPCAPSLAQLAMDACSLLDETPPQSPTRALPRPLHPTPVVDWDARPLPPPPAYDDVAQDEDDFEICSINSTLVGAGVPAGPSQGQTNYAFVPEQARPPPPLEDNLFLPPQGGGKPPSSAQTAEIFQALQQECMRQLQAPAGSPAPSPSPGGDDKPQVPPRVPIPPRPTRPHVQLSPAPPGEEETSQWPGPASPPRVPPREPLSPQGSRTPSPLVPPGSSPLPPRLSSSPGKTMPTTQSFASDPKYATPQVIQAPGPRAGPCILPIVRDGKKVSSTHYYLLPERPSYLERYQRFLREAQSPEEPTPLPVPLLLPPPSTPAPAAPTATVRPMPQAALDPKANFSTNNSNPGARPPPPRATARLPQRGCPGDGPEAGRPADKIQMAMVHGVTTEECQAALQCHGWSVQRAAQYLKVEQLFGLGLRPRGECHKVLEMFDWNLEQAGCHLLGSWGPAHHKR
Serine/threonine-protein kinase PknB (Mycobacterium tuberculosis), sequence (P9WI81 whole entry): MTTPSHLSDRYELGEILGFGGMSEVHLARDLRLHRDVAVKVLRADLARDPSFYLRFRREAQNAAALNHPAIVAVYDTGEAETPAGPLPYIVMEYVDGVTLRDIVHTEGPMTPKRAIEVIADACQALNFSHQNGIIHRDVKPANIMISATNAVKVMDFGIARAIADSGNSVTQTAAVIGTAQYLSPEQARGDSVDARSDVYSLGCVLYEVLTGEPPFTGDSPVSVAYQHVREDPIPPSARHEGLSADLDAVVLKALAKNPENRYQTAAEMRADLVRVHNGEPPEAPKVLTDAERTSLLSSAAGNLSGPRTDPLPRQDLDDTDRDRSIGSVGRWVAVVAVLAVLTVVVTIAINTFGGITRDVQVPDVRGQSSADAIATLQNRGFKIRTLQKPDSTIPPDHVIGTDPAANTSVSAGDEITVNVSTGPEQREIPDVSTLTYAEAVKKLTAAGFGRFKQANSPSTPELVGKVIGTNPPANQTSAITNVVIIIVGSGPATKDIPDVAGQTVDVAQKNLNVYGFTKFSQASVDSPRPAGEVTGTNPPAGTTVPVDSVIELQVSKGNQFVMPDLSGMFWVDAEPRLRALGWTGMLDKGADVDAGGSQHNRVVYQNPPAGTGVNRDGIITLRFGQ

C[C@H](NC(=O)Nc1cc2[nH]ncc2c(CO)n1)c1ccccn1 [ERKi-NC]
residual activity [1, 46]: 100% | residual activity [2, 46]: 100% | residual activity [3, 46]: 100% | residual activity [4, 46]: 100% | residual activity [5, 46]: 100% | residual activity [6, 46]: 56.5% | residual activity [7, 46]: 100% | residual activity [8, 46]: 100% | residual activity [9, 46]: 100% | residual activity [10, 46]: 100% | residual activity [11, 46]: 100% | residual activity [12, 46]: 100% | residual activity [13, 46]: 100% | residual activity [14, 46]: 96.9% | residual activity [15, 46]: 100% | residual activity [16, 46]: 95.1% | residual activity [17, 46]: 100% | residual activity [18, 46]: 53.1% | residual activity [19, 46]: 100% | residual activity [20, 46]: 84.3% | residual activity [21, 46]: 100% | residual activity [22, 46]: 100% | residual activity [23, 46]: 100% | residual activity [24, 46]: 97.4% | residual activity [25, 46]: 96.3% | residual activity [26, 46]: 76.7% | residual activity [27, 46]: 37.7% | residual activity [28, 46]: 100% | residual activity [29, 46]: 100% | residual activity [30, 46]: 99.5% | residual activity [31, 46]: 100% | residual activity [32, 46]: 100% | residual activity [33, 46]: 100% | residual activity [34, 46]: 100% | residual activity [35, 46]: 100% | residual activity [36, 46]: 76% | residual activity [37, 46]: 100% | residual activity [38, 46]: 100% | residual activity [39, 46]: 100% | residual activity [40, 46]: 100% | residual activity [41, 46]: 85.4% | residual activity [42, 46]: 69.9% | residual activity [43, 46]: 100% | inhibition [44]: 1.42% | inhibition [45]: 28.2%

C[C@@H](NC(=O)Nc1cc2[nH]ncc2c(CO)n1)c1ccccc1 [ERKi]
residual activity [1, 47]: 73.3% | residual activity [2, 47]: 96% | residual activity [3, 47]: 73.5% | residual activity [4, 47]: 100% | residual activity [5, 47]: 89.3% | residual activity [6, 47]: 84.6% | residual activity [7, 47]: 77.4% | residual activity [8, 47]: 88% | residual activity [9, 47]: 86.3% | residual activity [10, 47]: 89.8% | residual activity [11, 47]: 94.6% | residual activity [12, 47]: 82.9% | residual activity [13, 47]: 91.2% | residual activity [14, 47]: 92.5% | residual activity [15, 47]: 29% | residual activity [16, 47]: 100% | residual activity [17, 47]: 100% | residual activity [18, 47]: 100% | residual activity [19, 47]: 72.3% | residual activity [20, 47]: 97.6% | residual activity [21, 47]: 77.5% | residual activity [22, 47]: 100% | residual activity [23, 47]: 87.3% | residual activity [24, 47]: 80.6% | residual activity [25, 47]: 84.1% | residual activity [26, 47]: 78.6% | residual activity [27, 47]: 100% | residual activity [28, 47]: 100% | residual activity [29, 47]: 82.9% | residual activity [30, 47]: 45% | residual activity [31, 47]: 85% | residual activity [32, 47]: 89.7% | residual activity [33, 47]: 75% | residual activity [34, 47]: 79.6% | residual activity [35, 47]: 82.7% | residual activity [36, 47]: 92.6% | residual activity [37, 47]: 100% | residual activity [38, 47]: 100% | residual activity [39, 47]: 80.3% | residual activity [40, 47]: 94.8% | residual activity [41, 47]: 76.7% | residual activity [42, 47]: 94.7% | residual activity [43, 47]: 61.5% | inhibition [44]: -2.72% | inhibition [45]: 6.72%
